Measurements from US7041686B2, “Substituted imidazoles useful in the treatment of inflammatory diseases” (priority 2000, dated 2006).

Assays:
[1] = test system: TNF-α; assay: LPS-induced TNF-α production in human PBMC, in vitro whole cell assay (ELISA); type: cell-based; conditions: LPS stimulation overnight, TNF-α by ELISA
Procedure: Compounds of the invention were measured for their ability to inhibit the activity of p38 in an in vitro whole cell assay using peripheral blood mononuclear cells (“PBMC” ) obtained from human blood as follows. Freshly obtained venous blood was anticoagulated with heparin, diluted with an equal volume of phosphate buffered saline (“PBS” ) and placed in a sterile tube or other container. Aliquots (30 mL) of this mixture were transferred to centrifuge tubes which were underlaid with Ficoll-Hypaque (15 mL). The prepared tubes were centrifuged at 400×g without braking for 30 min at room temperature. Approximately ½ to ⅔ of the platelet layer above the mononuclear cell band was removed with a pipet. The majority of the mononuclear cell layer was carefully removed using a pipet and these PBMCs were diluted with PBS and spun at 600×g for 15 min. The resulting PBMCs were washed with another portion of PBS and spun at 400×g for 10 min at room temperature. The recovered pellets were diluted in low endotoxin RPMI/1% FCS culture medium and gave a cell concentration of 0.5–2.0×10^6 PMBC/mL. A small volume of the suspension was removed for counting on a hemocytometer and the remaining preparation was centrifuged at 200×g for 15 min at room temperature. The recovered pelleted PMBC were resuspended in RPMI/1% FCS to a concentration of 1.67×10^6/mL. […]

[2] = test system: Mouse TNF-α; assay: LPS induced TNF-α production, in vivo rodent assay (oral dosing, serum ELISA); conditions: LPS 1 mg/kg i.p. 30 min after dosing, serum 1 h later; for inhibition at 10 mg/kg: oral 10 mg/kg; for inhibition at 25 mg/kg: oral 25 mg/kg
Procedure: Mice (BALB/cJ females, Jackson Laboratories) or rats (Lewis males, Charles River) were fasted for 30 min prior to oral dosing with 5–10 mL/kg of test compound at 5–50 mg/kg. Thirty minutes after dosing, the animals were injected intraperitoneally with LPS at 1 mg/kg and returned to their cages for 1 h. Animals were anesthetized by CO2, exsanguinated by cardiac puncture and whole blood collected (0.1–0.7 mL). The blood was allowed to clot and serum was transferred to a centrifuge tube. This sample was centrifuged, serum was collected, aliquoted and frozen at −80 C. Samples were tested by commercial ELISAs for TNF-α (Endogen for mouse TNF-α and Biosource for rat TNF-α), resulting in data as shown in Table A.

Compound | IC50 [1] | inhibition at 10 mg/kg [2] | inhibition at 25 mg/kg [2] | melting point
CN1CCC/C1=C\c1nc(-c2ccc(F)cc2)c(-c2ccncc2)n1CCCc1ccccc1 [Compound 1, 4-[4-(4-fluorophenyl)-2-[(E)-(1-methyl-2-pyrrolidinylidene)methyl]-1-(3-phenylpropyl)-1H-imidazol-5-yl]-pyridine] | 15 nM | 77% | 99% | 171 to 172 °C
CCN1CCC/C1=C\c1nc(-c2ccc(F)cc2)c(-c2ccncc2)n1CCCc1ccccc1 [Compound 2, 4-[4-(4-fluorophenyl)-2-[(E)-(1-ethyl-2-pyrrolidinylidene)methyl]-1-(3-phenylpropyl)-1H-imidazol-5-yl]-pyridine] | 17 nM | 89% | 98% | 126.6 to 127.6 °C
